Calls of active or inactive are those of the source.
Legend:
[1] = target: Luciferin 4-monooxygenase (Photinus pyralis, UniProt P08659); experiment: inhibition of purified Photinus pyralis luciferase – biochemical, dry powder samples, plate reader, dose response (AID 588451)
[2] = luciferase reporter signal reduction – luminescence, H4-C neuroglioblastoma cells, dose response (AID 2458); format: functional, cell-based;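 note: H4 neuroglioblastoma cells stably carrying a luciferase reporter gene fusion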
H4 [3] = experiment: Inhibitors of Prion Protein 5' UTR mRNA Measured in Cell-Based System Using Plate Reader - 2078-01_Inhibitor_Dose_DryPowder_Activity. [Related pubchem assays (depositor defined):AID488894]; format: functional; settings: Homo sapiens
H4 [4] = experiment: Amyloid Precursor 5' UTR neuroblastoma cell reporter line Measured in Cell-Based System Using Plate Reader - 2078-04_Inhibitor_Dose_DryPowder_Activity. [Related pubchem assays (depositor defined):AID488894]; format: functional; settings: Homo sapiens
[5] = target: T1, Nucleotide-binding oligomerization domain-containing protein 1 (Homo sapiens, UniProt Q9Y239); experiment: blockers of NOD1 pathway activity – revised, SAR follow-up (AID 2333); format: functional
T1 sequence (Q9Y239 whole entry): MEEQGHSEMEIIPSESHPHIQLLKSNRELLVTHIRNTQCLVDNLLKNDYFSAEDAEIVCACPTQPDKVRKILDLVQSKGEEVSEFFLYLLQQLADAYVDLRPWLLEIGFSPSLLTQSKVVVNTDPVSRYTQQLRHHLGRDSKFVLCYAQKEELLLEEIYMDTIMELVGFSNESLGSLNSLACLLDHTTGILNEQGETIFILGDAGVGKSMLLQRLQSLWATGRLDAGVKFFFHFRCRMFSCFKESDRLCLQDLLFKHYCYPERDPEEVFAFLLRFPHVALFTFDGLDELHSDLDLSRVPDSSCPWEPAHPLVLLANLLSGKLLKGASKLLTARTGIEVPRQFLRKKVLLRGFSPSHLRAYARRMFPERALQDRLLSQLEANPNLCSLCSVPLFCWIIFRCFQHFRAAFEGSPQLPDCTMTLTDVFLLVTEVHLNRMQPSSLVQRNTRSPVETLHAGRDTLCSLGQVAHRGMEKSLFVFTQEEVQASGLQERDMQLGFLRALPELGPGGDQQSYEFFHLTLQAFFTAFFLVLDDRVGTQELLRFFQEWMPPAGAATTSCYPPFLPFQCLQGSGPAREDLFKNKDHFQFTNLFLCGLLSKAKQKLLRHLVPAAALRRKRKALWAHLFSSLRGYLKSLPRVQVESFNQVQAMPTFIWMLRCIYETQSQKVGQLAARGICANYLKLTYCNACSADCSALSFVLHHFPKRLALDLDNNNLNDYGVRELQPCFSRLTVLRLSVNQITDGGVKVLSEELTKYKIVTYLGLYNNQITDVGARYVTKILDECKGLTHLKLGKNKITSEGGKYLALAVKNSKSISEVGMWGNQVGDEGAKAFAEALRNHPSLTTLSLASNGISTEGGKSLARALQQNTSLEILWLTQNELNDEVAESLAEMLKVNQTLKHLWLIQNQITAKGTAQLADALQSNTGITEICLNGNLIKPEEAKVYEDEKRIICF

[6] = reduction of Shn3 3'UTR-driven luciferase in osteoblasts – cell-based, Clone20 osteoblasts, firefly luciferase, cherry-picked, dose response (AID 624132); format: functional;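 note: firefly luciferase luminescence from reporter carrying the Shn3 3'UTR in osteoblasts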
Tumor necrosis factor = Tumor necrosis factor (Homo sapiens, UniProt P01375); experiment: analog potency on TNFa NF-kB signaling – cell-based, revised, SAR follow-up (AID 2337); format: functional
Tumor necrosis factor, sequence (P01375 whole entry): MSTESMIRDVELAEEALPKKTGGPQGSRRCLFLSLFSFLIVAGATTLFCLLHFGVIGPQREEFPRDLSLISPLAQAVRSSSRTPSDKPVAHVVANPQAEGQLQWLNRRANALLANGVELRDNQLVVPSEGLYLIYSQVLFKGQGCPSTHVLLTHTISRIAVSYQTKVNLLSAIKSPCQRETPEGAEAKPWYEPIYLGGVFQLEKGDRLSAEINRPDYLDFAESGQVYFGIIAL

cells = format: functional, cell-based
H4 [7] = experiment: inhibitors of control reporter signal in H4 cells – cell-based, plate reader, dry powder samples, counter-screen for prion reporter project, dose response (AID 540255); format: functional; settings: Homo sapiens
[8] = Luminescence Cell-Based Dose Response HTS to Identify Inhibitors of 5'UTR Stem-Loop Driven Prion Protein mRNA Translation in H4 Neuroglioblastoma Cells. [Related pubchem assays: 1827 (Project Summary), 1813 (Primary HTS)]; format: functional
[9] = target: T2, Heat shock factor protein 1 (Mus musculus, UniProt P38532); experiment: decrease of HSF1-responsive luciferase luminescence – cell-based, NIH3T3, dose retest, confirmation (AID 2382); format: functional;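 note: NIH3T3 fibroblasts with HSF1-driven luciferase reporter stressed by proteasome inhibitor MG132; luminescence from HSF1-driven luciferase expression after 8 hours of MG132 stress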
T2 sequence (P38532 whole entry): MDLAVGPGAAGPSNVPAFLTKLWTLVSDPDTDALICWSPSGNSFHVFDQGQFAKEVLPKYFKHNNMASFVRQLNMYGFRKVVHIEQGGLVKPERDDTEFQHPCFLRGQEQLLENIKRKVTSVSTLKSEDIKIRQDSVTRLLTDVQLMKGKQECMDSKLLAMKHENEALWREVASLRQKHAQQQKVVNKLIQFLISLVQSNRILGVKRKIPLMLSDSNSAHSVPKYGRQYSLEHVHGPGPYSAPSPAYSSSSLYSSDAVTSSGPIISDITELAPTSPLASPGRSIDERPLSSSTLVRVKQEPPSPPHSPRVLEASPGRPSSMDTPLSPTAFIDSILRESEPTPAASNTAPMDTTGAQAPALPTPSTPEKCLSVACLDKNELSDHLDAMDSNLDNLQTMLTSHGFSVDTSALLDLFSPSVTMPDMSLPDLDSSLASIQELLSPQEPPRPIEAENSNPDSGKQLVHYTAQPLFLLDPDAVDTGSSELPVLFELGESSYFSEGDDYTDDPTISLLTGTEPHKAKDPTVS

[10] = luciferase reporter signal suppression in cells – H4 neuroglioma cells, luminescence, dose response (AID 1990); format: functional, cell-based
[11] = alpha-synuclein stem-loop translation blockers – luminescence, H4 neuroglioblastoma cells, dose confirmation, confirmation (AID 2454); format: functional, cell-based;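 note: H4 neuroglioblastoma cells carrying an alpha-synuclein 5'UTR luciferase reporter; potency for inhibition of the luciferase signal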
[12] = alpha-synuclein stem-loop luciferase translation blockers – H4 neuroglioma cells, luminescence, confirmation (AID 1988); format: functional, cell-based
[13] = Luminescence-based counterscreen assay for KLF5 inhibitors: dose response cell-based high throughput screening assay to identify cytotoxic compounds using the IEC-6 intestinal epithelial cell line. [Related pubchem assays: 1700 (Primary screen.), 1834 (Confirmation screen.), 1858 (Summary AID.), 1905 (Counterscreen.)]; format: functional
HEK293 = experiment: cells; settings: Homo sapiens;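 note: cells exposed to compound for 14 hours overnight before viability readout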
[14] = Shn3 3'UTR reporter signal decrease – cell-based, Clone20 osteoblasts, firefly luciferase, cherry-pick, set 2, Schnurri-3 inhibitor project, dose response (AID 720490); format: functional;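 note: actives lower the luminescence signal as inhibitors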
Beta-galactosidase = Beta-galactosidase (Escherichia coli, UniProt Q8VNN2); experiment: detection-enzyme interference by beta-gal modulators – biochemical, E. coli enzyme, set 3, artefact control for CCR6 antagonist project, dose response (AID 504712); format: functional
Beta-galactosidase, sequence (Q8VNN2 whole entry): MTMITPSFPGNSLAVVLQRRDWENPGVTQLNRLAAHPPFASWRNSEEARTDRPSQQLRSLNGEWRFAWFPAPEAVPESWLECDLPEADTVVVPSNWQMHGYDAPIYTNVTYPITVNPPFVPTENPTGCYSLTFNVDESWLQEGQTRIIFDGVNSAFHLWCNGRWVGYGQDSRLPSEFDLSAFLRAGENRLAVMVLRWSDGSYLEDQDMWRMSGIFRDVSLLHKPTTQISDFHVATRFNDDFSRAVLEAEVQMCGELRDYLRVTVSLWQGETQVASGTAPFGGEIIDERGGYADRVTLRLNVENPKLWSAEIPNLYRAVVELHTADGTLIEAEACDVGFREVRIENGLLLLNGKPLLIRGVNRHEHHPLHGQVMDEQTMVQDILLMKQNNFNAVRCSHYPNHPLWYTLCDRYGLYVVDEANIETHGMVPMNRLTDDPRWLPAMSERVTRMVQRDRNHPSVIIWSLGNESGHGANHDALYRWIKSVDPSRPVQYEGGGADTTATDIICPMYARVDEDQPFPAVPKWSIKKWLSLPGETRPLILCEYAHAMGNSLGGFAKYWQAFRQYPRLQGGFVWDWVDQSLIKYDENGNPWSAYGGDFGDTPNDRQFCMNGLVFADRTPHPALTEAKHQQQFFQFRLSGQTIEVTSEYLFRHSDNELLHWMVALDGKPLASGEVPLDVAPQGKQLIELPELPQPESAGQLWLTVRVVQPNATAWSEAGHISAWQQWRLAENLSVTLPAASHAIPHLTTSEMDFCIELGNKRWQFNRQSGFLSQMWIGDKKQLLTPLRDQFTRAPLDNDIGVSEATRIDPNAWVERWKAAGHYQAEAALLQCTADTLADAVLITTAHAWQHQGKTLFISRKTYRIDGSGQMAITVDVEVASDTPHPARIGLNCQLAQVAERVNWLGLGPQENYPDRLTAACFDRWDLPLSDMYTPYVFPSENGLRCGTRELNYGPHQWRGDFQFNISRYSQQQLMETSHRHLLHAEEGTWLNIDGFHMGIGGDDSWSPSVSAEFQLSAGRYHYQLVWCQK

[15] = target: 26S proteasome non-ATPase regulatory subunit 14 (Homo sapiens, UniProt O00487); experiment: inhibition of proteasome subunit RPN11 – biochemical, fluorescence polarization, uHTS hits, confirmation (AID 602368); format: functional
26S proteasome non-ATPase regulatory subunit 14, sequence (O00487 whole entry): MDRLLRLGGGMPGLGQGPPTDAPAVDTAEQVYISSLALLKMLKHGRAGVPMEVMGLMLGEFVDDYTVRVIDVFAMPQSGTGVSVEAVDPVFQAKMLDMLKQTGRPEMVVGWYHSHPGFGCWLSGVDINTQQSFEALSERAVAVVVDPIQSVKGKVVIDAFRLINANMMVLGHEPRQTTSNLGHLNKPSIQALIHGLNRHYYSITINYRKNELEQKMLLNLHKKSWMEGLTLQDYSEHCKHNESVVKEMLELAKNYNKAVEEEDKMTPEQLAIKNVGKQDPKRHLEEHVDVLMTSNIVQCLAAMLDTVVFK

[16] = target: T3, Endoribonuclease toxin MazF (Escherichia coli K-12, UniProt P0AE70); experiment: activation of MazEF endoribonuclease cleavage – biochemical, fluorescence, single-stranded RNA substrate, uHTS hits, dose response (AID 588481); format: functional
T3 sequence (P0AE70 whole entry): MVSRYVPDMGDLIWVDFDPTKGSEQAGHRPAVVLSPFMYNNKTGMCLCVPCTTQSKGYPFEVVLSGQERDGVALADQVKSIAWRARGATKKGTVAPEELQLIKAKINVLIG

[17] = target: 72 kDa type IV collagenase (Homo sapiens, UniProt P08253); experiment: Dose Response validation of uHTS RPN11 inhibitor hits using a MMP-2 Fluorescence assay.; format: functional
72 kDa type IV collagenase, sequence (P08253 whole entry): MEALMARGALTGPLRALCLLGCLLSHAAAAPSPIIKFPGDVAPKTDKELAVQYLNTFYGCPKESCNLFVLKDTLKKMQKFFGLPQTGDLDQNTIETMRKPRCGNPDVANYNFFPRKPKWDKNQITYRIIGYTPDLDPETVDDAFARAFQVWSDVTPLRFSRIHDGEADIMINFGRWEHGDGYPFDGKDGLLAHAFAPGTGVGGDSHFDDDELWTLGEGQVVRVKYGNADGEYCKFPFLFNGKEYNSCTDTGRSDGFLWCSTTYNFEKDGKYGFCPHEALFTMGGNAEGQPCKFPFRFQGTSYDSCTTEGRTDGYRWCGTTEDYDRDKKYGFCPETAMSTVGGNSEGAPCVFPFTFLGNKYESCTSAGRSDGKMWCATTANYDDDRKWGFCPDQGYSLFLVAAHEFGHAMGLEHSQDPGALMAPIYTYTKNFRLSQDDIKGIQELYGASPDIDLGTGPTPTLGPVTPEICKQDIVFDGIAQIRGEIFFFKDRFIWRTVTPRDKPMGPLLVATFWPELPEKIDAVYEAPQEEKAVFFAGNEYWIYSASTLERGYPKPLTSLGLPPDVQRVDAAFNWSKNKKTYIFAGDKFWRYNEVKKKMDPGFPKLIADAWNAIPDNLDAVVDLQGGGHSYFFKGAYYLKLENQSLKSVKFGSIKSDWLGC

[18] = target: C-C chemokine receptor type 6 (Homo sapiens, UniProt P51684); experiment: antagonism of CCR6 beta-arrestin recruitment – cell-based, luminescent beta-arrestin readout, dose response (AID 504728); format: functional
C-C chemokine receptor type 6, sequence (P51684 whole entry): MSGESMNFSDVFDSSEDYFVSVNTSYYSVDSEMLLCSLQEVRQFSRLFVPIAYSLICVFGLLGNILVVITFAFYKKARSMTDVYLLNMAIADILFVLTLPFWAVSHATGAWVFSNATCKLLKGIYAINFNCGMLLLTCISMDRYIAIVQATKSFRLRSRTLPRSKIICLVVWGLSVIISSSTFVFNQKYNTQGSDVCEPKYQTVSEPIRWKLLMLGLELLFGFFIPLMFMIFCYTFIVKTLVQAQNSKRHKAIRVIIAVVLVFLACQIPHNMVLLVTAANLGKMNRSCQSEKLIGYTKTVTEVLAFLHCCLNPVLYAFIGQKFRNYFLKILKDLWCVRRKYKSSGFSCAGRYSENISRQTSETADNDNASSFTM

Prothrombin = Prothrombin (Bos taurus, UniProt P00735); experiment: thrombin protease inhibitors – biochemical, fluorescence polarization, uHTS hits, dose response (AID 602369); format: functional
[19] = target: T3, Endoribonuclease toxin MazF; experiment: substrate-only fluorescence increase artefacts – biochemical, single-stranded RNase substrate, counter-screen for MazEF activator project, dose response (AID 588502); format: functional

Luciferin 4-monooxygenase, sequence (P08659 whole entry, the tested form may be a part): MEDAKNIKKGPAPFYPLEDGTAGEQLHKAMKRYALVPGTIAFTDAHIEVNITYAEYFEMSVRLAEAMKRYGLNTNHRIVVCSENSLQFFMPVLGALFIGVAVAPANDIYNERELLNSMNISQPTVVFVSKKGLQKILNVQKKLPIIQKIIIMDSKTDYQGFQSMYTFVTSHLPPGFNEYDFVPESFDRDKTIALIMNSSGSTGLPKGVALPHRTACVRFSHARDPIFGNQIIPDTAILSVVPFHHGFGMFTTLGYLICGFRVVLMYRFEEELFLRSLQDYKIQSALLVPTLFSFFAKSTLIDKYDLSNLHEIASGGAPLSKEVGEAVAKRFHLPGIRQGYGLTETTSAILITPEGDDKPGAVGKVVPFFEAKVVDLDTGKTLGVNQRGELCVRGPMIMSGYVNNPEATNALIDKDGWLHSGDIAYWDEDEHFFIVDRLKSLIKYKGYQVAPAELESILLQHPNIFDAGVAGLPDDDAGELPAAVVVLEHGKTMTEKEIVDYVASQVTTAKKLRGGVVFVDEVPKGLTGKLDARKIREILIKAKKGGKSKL

Cc1cc(C(=O)COC(=O)c2ccccc2O)c(C)n1Cc1cccs1
> 39800 nM (not active): IC50 [13]
inactive: IC50 (HEK293) > 20000 nM
active: AC50 [1] 12200 nM | EC50 [2] 102 nM | AC50 (H4 [3]) 13 nM | AC50 (H4 [4]) 3.32 nM | IC50 [5] 285 nM | AC50 [6] 8990 nM | IC50 (Tumor necrosis factor) < 39.1 nM | EC50 (cells) 146 nM | AC50 (H4 [7]) 66 nM | EC50 [8] < 100 nM | EC50 [9] < 160 nM | EC50 [10] < 100 nM | EC50 [11] 159 nM | EC50 [12] < 100 nM | AC50 [14] < 135 nM

COc1ccccc1C(=O)/N=C(\N)Nc1nc2ccccc2o1
inactive: IC50 (Beta-galactosidase) > 66600 nM | EC50 [16] > 99000 nM | IC50 [17] > 100000 nM | IC50 [18] > 66600 nM | EC50 [19] > 99000 nM
active: IC50 [15] 38300 nM | IC50 (Prothrombin) 60900 nM
